Tests used:
[1] = target: T1, Alpha-2A adrenergic receptor (Homo sapiens, UniProt P08913)
T1 sequence (P08913 whole entry): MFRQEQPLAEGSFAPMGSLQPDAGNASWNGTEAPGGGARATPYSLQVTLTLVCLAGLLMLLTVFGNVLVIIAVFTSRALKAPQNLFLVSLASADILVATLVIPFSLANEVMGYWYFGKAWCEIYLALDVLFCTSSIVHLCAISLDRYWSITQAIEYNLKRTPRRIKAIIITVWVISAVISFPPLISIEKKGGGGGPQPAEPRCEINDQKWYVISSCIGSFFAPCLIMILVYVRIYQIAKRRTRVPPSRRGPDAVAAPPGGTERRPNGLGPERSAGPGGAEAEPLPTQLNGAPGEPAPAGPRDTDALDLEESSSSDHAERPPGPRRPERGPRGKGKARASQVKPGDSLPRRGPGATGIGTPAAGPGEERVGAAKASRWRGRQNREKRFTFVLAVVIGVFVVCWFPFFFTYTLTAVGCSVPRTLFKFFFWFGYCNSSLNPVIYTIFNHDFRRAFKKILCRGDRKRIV

Thromboxane A2 receptor [2] = target: T2, Thromboxane A2 receptor (Homo sapiens, UniProt P21731); format: functional, cell-based
T2 sequence (P21731 whole entry): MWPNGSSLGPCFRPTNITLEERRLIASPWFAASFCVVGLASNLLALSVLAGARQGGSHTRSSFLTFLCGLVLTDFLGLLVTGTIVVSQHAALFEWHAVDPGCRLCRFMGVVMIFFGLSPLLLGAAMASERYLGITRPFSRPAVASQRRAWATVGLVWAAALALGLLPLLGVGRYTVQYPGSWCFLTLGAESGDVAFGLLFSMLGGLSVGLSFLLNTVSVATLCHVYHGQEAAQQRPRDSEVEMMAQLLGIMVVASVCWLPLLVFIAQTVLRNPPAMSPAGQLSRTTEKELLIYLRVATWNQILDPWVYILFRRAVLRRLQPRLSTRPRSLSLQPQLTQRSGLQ

D(1A) dopamine receptor = D(1A) dopamine receptor (Homo sapiens, UniProt P21728)
Sequence of D(1A) dopamine receptor (P21728 whole entry): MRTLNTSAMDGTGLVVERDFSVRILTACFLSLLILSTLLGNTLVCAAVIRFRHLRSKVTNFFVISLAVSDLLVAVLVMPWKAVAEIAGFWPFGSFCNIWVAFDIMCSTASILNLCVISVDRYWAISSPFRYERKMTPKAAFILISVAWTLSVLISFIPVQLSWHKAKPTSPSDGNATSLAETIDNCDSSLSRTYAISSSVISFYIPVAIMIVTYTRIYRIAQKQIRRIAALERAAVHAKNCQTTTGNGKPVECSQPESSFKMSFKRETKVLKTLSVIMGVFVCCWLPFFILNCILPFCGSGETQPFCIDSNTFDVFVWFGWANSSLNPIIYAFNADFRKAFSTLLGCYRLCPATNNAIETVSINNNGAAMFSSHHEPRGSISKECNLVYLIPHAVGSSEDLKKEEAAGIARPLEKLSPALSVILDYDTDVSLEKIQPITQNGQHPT

Prothrombin = Prothrombin (Homo sapiens, UniProt P00734); format: functional
[3] = target: T3, Alpha-1A adrenergic receptor (Homo sapiens, UniProt P35348); format: functional, cell-based
T3 sequence (P35348 whole entry): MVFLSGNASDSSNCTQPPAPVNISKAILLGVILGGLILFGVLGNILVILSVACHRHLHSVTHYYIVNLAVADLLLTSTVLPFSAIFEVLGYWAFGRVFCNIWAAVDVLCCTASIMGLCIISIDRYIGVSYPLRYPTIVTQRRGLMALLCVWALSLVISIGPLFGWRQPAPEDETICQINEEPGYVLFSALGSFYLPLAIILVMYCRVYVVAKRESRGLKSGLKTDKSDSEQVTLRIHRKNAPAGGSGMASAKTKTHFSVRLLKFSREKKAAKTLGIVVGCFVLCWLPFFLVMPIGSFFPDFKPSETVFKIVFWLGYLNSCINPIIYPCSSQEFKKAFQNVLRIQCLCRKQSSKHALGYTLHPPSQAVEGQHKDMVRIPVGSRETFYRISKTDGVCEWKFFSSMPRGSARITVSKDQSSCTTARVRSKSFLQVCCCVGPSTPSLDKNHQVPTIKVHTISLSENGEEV

[4] = target: T4, Muscarinic acetylcholine receptor M2 (Homo sapiens, UniProt P08172)
T4 sequence (P08172 whole entry): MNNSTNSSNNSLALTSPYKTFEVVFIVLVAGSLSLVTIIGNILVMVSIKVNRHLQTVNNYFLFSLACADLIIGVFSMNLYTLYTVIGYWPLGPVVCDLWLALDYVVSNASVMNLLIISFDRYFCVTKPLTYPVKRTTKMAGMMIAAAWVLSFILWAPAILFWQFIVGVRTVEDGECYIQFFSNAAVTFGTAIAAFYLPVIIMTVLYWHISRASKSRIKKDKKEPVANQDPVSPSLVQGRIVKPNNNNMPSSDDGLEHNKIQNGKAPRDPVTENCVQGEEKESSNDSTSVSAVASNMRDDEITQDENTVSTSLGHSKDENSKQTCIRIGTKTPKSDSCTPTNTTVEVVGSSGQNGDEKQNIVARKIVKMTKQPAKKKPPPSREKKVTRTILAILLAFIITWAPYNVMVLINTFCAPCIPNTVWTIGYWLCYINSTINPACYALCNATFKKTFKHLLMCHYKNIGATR

D(3) dopamine receptor = D(3) dopamine receptor (Homo sapiens, UniProt P35462)
Sequence of D(3) dopamine receptor (P35462 whole entry): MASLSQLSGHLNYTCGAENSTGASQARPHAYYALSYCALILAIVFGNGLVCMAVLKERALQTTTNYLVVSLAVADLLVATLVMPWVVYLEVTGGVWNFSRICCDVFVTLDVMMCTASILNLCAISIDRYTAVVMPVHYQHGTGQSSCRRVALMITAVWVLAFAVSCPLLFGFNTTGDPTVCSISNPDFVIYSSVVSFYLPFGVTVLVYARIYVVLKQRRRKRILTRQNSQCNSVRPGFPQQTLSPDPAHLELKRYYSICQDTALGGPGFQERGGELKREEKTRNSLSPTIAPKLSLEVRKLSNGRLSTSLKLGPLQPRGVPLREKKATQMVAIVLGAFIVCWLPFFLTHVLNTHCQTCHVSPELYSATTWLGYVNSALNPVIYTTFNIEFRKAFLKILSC

[5] = target: Sodium-dependent noradrenaline transporter (Homo sapiens, UniProt P23975)
Sequence of Sodium-dependent noradrenaline transporter (P23975 whole entry): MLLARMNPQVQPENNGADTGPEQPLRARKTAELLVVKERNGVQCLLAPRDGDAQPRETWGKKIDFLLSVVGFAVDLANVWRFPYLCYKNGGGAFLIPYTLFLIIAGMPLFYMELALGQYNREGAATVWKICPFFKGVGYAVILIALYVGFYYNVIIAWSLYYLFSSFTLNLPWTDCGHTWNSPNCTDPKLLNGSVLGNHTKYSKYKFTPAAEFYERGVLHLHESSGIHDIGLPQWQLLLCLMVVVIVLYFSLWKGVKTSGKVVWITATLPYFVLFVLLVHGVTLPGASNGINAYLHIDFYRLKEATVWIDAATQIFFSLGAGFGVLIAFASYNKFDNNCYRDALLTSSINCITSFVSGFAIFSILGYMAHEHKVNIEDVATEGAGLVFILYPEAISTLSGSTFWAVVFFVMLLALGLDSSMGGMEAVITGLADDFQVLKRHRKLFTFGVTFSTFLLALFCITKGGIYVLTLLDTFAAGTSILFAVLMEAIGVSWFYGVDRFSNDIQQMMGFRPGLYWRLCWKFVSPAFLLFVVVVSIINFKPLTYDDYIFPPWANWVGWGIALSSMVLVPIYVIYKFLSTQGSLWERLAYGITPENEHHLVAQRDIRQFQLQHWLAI

[6] = target: Voltage-gated inwardly rectifying potassium channel KCNH2 (Homo sapiens, UniProt Q12809); format: functional
Sequence of Voltage-gated inwardly rectifying potassium channel KCNH2 (Q12809 whole entry): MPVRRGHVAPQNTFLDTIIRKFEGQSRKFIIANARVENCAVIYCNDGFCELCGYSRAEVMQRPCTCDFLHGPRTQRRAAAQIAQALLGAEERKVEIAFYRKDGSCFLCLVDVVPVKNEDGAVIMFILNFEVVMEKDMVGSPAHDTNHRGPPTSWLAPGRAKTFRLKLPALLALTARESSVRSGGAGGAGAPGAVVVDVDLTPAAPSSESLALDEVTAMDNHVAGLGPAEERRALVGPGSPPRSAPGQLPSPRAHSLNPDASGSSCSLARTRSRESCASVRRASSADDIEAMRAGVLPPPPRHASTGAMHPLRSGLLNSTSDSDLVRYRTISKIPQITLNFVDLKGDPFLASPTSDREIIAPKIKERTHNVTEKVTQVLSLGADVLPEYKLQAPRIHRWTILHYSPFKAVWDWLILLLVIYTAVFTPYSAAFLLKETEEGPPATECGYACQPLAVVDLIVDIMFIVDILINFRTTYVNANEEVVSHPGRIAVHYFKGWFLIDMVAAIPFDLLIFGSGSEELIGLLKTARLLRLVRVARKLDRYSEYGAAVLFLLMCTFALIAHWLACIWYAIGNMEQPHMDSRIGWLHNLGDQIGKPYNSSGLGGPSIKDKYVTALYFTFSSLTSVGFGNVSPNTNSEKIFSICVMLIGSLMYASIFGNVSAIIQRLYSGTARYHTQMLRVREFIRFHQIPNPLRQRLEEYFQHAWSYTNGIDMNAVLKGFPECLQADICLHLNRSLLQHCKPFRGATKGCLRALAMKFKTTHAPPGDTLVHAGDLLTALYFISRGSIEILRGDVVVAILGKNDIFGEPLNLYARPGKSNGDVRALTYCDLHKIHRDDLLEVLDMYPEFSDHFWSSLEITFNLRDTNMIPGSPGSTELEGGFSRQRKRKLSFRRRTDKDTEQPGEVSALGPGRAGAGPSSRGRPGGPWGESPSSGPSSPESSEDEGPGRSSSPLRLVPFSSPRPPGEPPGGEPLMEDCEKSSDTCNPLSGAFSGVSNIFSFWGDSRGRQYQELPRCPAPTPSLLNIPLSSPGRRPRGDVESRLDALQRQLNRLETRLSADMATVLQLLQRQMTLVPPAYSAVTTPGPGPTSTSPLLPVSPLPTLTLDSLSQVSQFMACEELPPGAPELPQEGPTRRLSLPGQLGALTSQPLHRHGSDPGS

[7] = target: Prostaglandin G/H synthase 1 (Homo sapiens, UniProt P23219); format: functional
Sequence of Prostaglandin G/H synthase 1 (P23219 whole entry): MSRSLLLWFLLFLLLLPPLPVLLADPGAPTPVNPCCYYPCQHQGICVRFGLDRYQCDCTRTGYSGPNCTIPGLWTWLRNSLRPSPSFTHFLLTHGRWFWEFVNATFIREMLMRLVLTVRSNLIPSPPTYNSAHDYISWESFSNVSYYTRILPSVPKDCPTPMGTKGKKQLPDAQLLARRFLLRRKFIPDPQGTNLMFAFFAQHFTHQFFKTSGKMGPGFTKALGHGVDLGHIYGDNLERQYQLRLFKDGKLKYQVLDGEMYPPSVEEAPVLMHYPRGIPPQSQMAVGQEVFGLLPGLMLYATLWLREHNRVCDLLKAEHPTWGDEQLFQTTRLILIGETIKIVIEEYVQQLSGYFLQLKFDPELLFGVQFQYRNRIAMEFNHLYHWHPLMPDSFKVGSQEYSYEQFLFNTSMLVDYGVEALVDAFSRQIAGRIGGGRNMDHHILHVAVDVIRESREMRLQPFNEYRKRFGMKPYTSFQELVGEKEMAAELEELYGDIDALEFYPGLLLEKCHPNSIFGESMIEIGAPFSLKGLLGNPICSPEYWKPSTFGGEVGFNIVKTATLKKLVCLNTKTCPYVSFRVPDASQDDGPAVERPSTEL

Histamine H3 receptor = Histamine H3 receptor (Homo sapiens, UniProt Q9Y5N1)
Sequence of Histamine H3 receptor (Q9Y5N1 whole entry): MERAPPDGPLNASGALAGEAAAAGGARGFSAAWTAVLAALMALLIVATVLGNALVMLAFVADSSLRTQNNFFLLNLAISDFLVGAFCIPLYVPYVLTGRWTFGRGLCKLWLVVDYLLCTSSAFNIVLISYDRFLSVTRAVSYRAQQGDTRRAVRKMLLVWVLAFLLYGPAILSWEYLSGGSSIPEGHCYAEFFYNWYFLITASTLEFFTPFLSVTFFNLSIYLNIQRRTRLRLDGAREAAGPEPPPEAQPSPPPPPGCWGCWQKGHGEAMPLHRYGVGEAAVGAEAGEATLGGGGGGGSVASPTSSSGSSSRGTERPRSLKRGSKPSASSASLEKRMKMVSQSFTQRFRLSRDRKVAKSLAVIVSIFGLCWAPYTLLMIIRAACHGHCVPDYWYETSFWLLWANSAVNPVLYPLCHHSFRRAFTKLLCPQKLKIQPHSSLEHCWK

Thromboxane A2 receptor [8] = target: T2, Thromboxane A2 receptor; format: functional, cell-based; remark: listed apart in the source
[9] = target: T5, 5-hydroxytryptamine receptor 1A (Homo sapiens, UniProt P08908)
T5 sequence (P08908 whole entry): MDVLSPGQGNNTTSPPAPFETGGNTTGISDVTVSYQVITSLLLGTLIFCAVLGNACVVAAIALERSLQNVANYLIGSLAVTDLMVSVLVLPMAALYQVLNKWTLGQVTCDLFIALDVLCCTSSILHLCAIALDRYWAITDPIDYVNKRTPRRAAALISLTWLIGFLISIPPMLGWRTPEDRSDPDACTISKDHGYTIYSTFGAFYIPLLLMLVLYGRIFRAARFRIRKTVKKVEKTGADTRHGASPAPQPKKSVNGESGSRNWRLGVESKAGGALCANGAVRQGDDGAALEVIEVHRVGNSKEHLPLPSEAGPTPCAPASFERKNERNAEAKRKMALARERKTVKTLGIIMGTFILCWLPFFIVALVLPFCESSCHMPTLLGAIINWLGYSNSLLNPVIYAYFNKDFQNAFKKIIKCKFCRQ
Note: assay procedure not described here.

| Compound | AC50 [1] | AC50 (Thromboxane A2 receptor [2]) | AC50 (D(1A) dopamine receptor) | AC50 (Prothrombin) | AC50 [3] | AC50 [4] | AC50 (D(3) dopamine receptor) | AC50 [5] | AC50 [6] | AC50 [7] | AC50 (Histamine H3 receptor) | AC50 (Thromboxane A2 receptor [8]) | AC50 [9] |
| --- | --- | --- | --- | --- | --- | --- | --- | --- | --- | --- | --- | --- | --- |
| CCCCC(CC)CN1CN(CC(CC)CCCC)CC(C)(N)C1 (stereo not given) [HEXETIDINE] | 14.4 µM | > 30 µM | > 30 µM | > 30 µM | > 30 µM | 3.18 µM | 4.84 µM | 7.93 µM | 0.75 µM | > 30 µM | > 10 µM | > 30 µM | 3.44 µM |
| Cc1cc(=O)oc2cc(O)ccc12 [HYMECROMONE] | > 30 µM | > 30 µM | > 30 µM | > 3 µM | > 30 µM | > 30 µM | > 30 µM | > 30 µM | > 30 µM | > 30 µM | > 30 µM | > 30 µM | > 30 µM |
| COc1cc(C(C)=O)ccc1OCCCN1CCC(c2noc3cc(F)ccc23)CC1 [ILOPERIDONE] | 0.06 µM | > 10 µM | 0.01 µM | > 30 µM | > 10 µM | 2.18 µM | 0.0099 µM | 1.19 µM | 0.15 µM | > 30 µM | > 30 µM | > 10 µM | 0.11 µM |
| COc1c2occc2c(OC)c2c(=O)cc(C)oc12 [KHELLIN] | > 30 µM | > 30 µM | > 30 µM | > 30 µM | > 30 µM | > 30 µM | > 30 µM | > 30 µM | > 30 µM | > 30 µM | > 30 µM | > 30 µM | > 30 µM |
| CC(C)[C@@H]1CC[C@@H](C)C[C@H]1O [LEVOMENTHOL] | > 30 µM | > 30 µM | > 30 µM | > 30 µM | > 30 µM | > 30 µM | > 30 µM | > 30 µM | > 30 µM | > 30 µM | > 30 µM | > 30 µM | > 30 µM |
| COC(=O)[C@@H](N)Cc1ccc(O)c(O)c1 [MELEVODOPA] | 20.3 µM | > 30 µM | > 30 µM | > 30 µM | > 30 µM | > 30 µM | > 30 µM | > 30 µM | > 30 µM | > 30 µM | > 30 µM | > 30 µM | > 30 µM |
| C=N[C@@H](C(=O)N[C@@H]1C(=O)N2[C@@H]1SC(C)(C)[C@@H]2C(=O)O)c1ccccc1 [METAMPICILLIN] | > 30 µM | > 30 µM | > 30 µM | > 30 µM | > 30 µM | > 30 µM | > 30 µM | > 30 µM | > 30 µM | 11.8 µM | > 30 µM | > 30 µM | > 30 µM |
| O=C(NNCS(=O)(=O)O)c1ccncc1 [METHANIAZIDE] | > 30 µM | > 30 µM | > 30 µM | > 30 µM | > 30 µM | > 30 µM | > 30 µM | > 30 µM | > 30 µM | > 30 µM | > 30 µM | > 30 µM | > 30 µM |
| Cc1cc(=O)[nH]c(=S)[nH]1 [METHYLTHIOURACIL] | > 30 µM | > 30 µM | > 30 µM | > 30 µM | > 30 µM | > 30 µM | > 30 µM | > 30 µM | > 30 µM | > 30 µM | > 30 µM | > 30 µM | > 30 µM |
| CN(C)c1ccc(O)c2c1C[C@H]1C[C@H]3[C@H](N(C)C)C(O)=C(C(N)=O)C(=O)[C@@]3(O)C(O)=C1C2=O [MINOCYCLINE] | > 30 µM | > 30 µM | > 30 µM | > 30 µM | > 30 µM | > 10 µM | > 30 µM | > 30 µM | > 30 µM | 2.5 µM | > 30 µM | > 30 µM | > 30 µM |
| CCNC(=O)/C=C(C)/C=C/C=C(C)/C=C/c1c(C)cc(OC)c(C)c1C [MOTRETINIDE] | > 30 µM | > 30 µM | > 30 µM | > 30 µM | > 30 µM | > 30 µM | > 30 µM | 24.1 µM | 5.7 µM | 12 µM | > 30 µM | > 30 µM | > 30 µM |
| C=CC(=O)Nc1cccc(Oc2nc(Nc3ccc(N4CCN(C)CC4)cc3)nc3ccsc23)c1 [OLMUTINIB] | 0.881 µM | > 30 µM | 3.81 µM | > 30 µM | > 30 µM | 1.64 µM | 0.453 µM | 12.3 µM | 0.54 µM | > 30 µM | 0.94 µM | 4.35 µM | 2.44 µM |
| COc1ccc2[nH]c([S+]([O-])Cc3ncc(C)c(OC)c3C)nc2c1 (stereo not given) [OMEPRAZOLE] | > 30 µM | > 30 µM | > 30 µM | > 30 µM | > 30 µM | 15.7 µM | 20.7 µM | > 30 µM | 17 µM | > 30 µM | > 30 µM | > 30 µM | > 30 µM |
| CCCCC1C(=O)N(c2ccccc2)N(c2ccc(O)cc2)C1=O (stereo not given) [OXYPHENBUTAZONE ANHYDROUS] | > 30 µM | > 30 µM | > 30 µM | > 30 µM | > 30 µM | > 30 µM | > 30 µM | > 30 µM | > 30 µM | 21.8 µM | > 30 µM | > 30 µM | > 30 µM |
| O=C(O)CN(CCN(CC(=O)O)CC(=O)O)CCN(CC(=O)O)CC(=O)O [PENTETIC ACID] | 1.32 µM | > 30 µM | 8.71 µM | > 30 µM | > 30 µM | 3.91 µM | 2.26 µM | 10.9 µM | > 30 µM | > 30 µM | 19.8 µM | > 30 µM | > 30 µM |

Source: ChEMBL document CHEMBL5291721, “A preclinical secondary pharmacology resource illuminates target-adverse drug reaction associations of marketed drugs” (Nat Commun, 2023)
